From article PMC4591660 (Toxins, 2015)
Entries after “also recorded” stand apart in the source; their conditions may differ. Read-outs that look alike come from different tables or passages of the source.

Key:
[1] = target: T1, mTRPV1 (Mus musculus, UniProt Q704Y3); assay type: cell-based
T1 construct: expressed in transfected cells; host or cells: HEK293T
Description: (§1) Thus, electrophysiological tests on transient transfected TRPV1 were performed. […] To our knowledge, HEK293T cells have been reported to endogenously express acid-sensing ion channels (ASICs).
(§2) All patch clamp recordings were carried out at temperature 20 °C using an EPC-10 amplifier (HEKA Electronik, Lambrecht, Germany) according to the previous report. Recording pipettes were made from borosilicate glass capillary tubing, and their resistances were 3–5 MΩ when filled with internal solution. For mKv1.1 and mKv1.3 current recordings, the cells were held at −80 mV for 5 min after the whole-cell construction was established. All of the potassium current traces were elicited by a 300-ms depolarizing potential of 0 mV from a holding potential of −80 mV. The standard pipette solution contained (in mM): 140 KF, 4 MgCl2, 5 ATP-Na, 1 EGTA, and 10 HEPES, pH 7.3. The standard bath solution contained (in mM): 137 NaCl, 5.9 KCl, 2.2 CaCl2, 1.2 MgCl2, 14 glucose, and 10 HEPES, pH 7.3. For mice TRPV1 channel recordings, the pipette and bathing solution contained (in mM): 130 NaCl, 0.2 EDTA, and 3 HEPES, pH 7.2.
(§3) Experimental data of electrophysiological recordings were acquired and analyzed by using the Pulse program and Igor Pro. The data obtained in experiments involving animals were analyzed by GraphPad Prism 5 (GraphPad Software, Inc., San Diego, CA, USA). All of the data points are shown as the means ± S.E. n is presented as the number of experiments. Statistical analysis was carried out by Student’s t test, and * indicated a significant difference (p < 0.01).

[2] = system: WT mice; assay type: in vivo, C57BL/6J; conditions: 10 μL intraplantar, left hind paw, 30 min recording, n = 10; for pain behavior (duration of paw licking/biting): 500 µM, vs saline; for pain behavior (paw licking), dose-response: different doses
Description: (§4) Mice, C57BL/6J, were used as wild type (WT) in these experiments. TRPV1-KO mice were purchased from Model Animal Research Center of Nanjing University, China. All the experiments using animals were carried out in accordance with recommendations in the Guide for the Care and Use of Laboratory Animals of Kunming Institute of Zoology, Chinese Academy of Sciences. Experimental protocols using animals in this work were approved by the Institutional Animal Care and Use Committees at Kunming Institute of Zoology, Chinese Academy of Sciences (2014-204). All efforts were made to reduce the number of animals used and to minimize the suffering of animals.
(§5) Control mice were injected with the same volume of saline. Immediately after injection, the time of paw licking was recorded by digital video camera for 30 min.
as §3

[3] = system: native HEK293T cells; assay type: cell-based; conditions: negative for TRPV1, 20 °C, endogenous ASICs
Description: as §1, §2, §3

[4] = system: DRG neurons of TRPV1 KO mice; assay type: cell-based, mouse
Description: (§6) DRG neurons from WT or TRPV1 KO mice were acutely dissociated and maintained in short-term primary culture as previously described. DRGs were incubated in 5% CO2/95% air at 37 °C for 1–4 h prior to patch-clamp experiments. HEK293T cells were used for mKv1.1 or mKv1.3 expression. Cells were grown under standard tissue culture conditions (5% CO2, 37 °C) in DMEM supplemented with 10% fetal bovine serum. Cells were transfected with DNA mixture (channel constructs and a green fluorescent protein (GFP) reporter plasmid) using lipofectamine 2000 transfection reagent (Invitrogen, Carlsbad, CA, USA) following the manufacturer’s instructions and used for electrophysiology 24–48 h after transfection. Cells with GFP fluorescence were selected for patch-clamp recordings […] after transfection.
as §2
as §3, with “Statistical analysis was carried out by Student’s t test, and * indicated a significant difference (p < 0.01).” left out

[5] = system: DRG neurons of WT mice; assay type: cell-based, mouse; conditions: 10 µM; DRG neurons 20 µm ≤ cell ≤ 35 µm; 20 °C
Description: as §6, §2
as §3, with “Statistical analysis was carried out by Student’s t test, and * indicated a significant difference (p < 0.01).” left out

[6] = system: TRPV1; conditions: cited from earlier work
[7] = system: TRPV1 KO mice; assay type: in vivo; conditions: 500 µM, 10 μL intraplantar, left hind paw; 30 min recording; n = 10; vs saline
Description: as §4, §5, §3

[8] = system: Kv1.1; design: method as in PMID 11173083, PMID 10565809; conditions: ref [37],[38]; cited from earlier work
[9] = system: Kv1.3; design: method as in PMID 11173083, PMID 10565809; conditions: ref [37],[38]; cited from earlier work

T1 sequence (Q704Y3 whole entry): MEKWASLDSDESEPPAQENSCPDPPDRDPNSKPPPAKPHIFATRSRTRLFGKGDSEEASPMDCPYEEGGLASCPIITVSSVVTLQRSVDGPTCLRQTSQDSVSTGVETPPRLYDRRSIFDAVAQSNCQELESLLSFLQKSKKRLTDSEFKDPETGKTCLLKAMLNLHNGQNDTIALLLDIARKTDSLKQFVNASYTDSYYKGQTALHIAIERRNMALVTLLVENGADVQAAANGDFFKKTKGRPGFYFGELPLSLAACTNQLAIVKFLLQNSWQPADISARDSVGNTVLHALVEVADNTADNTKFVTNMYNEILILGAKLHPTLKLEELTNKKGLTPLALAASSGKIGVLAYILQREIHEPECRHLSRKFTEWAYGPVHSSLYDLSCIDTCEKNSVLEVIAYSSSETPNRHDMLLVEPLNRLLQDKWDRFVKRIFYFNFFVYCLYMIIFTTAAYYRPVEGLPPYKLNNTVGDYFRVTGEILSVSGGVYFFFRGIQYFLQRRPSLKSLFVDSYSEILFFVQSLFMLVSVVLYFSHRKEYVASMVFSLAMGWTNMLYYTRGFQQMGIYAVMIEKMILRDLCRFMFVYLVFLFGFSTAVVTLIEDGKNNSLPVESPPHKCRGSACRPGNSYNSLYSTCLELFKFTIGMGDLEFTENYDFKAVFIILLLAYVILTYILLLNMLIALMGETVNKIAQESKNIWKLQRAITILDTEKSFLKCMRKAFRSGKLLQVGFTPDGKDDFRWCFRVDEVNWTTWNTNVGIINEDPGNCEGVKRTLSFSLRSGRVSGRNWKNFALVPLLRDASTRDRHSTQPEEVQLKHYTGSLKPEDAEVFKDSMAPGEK

NCCOB(c1ccccc1)c1ccccc1 [2APB]
activation of TRPV1 (comparator agonists) ([1]; HEK293T expressing mTRPV1, concentration not given, 20 °C): potently activated TRPV1

COc1cc(CNC(=O)CCCC/C=C/C(C)C)ccc1O [capsaicin]
pain behavior (duration of paw licking/biting) [2]: induced pain in WT mice | pain behavior (paw licking), dose-response [2]: induced acute pain in a dose dependent manner | evoked currents in native HEK293T cells, ramp method [3]: did not evoke the currents | activation of TRPV1 (comparator agonists) [1]: potently activated TRPV1 | evoked currents in TRPV1-expressed HEK293T cells, ramp method [1]: evoked the currents in HEK293T cells with over-expressed TRPV1 channels | normalized evoked currents, TRPV1 KO compared with WT DRG neurons [4]: significantly higher in WT than TRPV1 KO mice; also recorded: significantly lower in TRPV1 KO mice than in WT mice | evoked currents on DRG neurons (TRPV1 KO) ([4]; 10 µM, DRG neurons 20 µm ≤ cell ≤ 35 µm, 20 °C): not TRPV1 KO mice; also recorded: did not evoke currents | evoked currents on DRG neurons (WT) [5]: effectively evoked the currents in DRG neurons of WT; also recorded: evoked the currents on DRG sensory neurons of WT mice | agonism on TRPV1 [6]: well-known agonist of TRPV1

kaliotoxin
pain behavior (duration of paw licking/biting) [7]: only crude venom induced pain | pain behavior (duration of paw licking/biting) [2]: unable to induce pain | pain behavior (paw licking), dose-response [2]: did not induce pain | pain behavior (paw licking), dose-response ([2]; listed as Kaliotoxin): showed no significant pain behavior | inhibition of Kv1.1 [8]: potent inhibitor of Kv1.1 and Kv1.3 | inhibition of Kv1.3 [9]: potent inhibitor of Kv1.1 and Kv1.3
